Where “and” joins values, the source holds several entries; their conditions need not be identical. Identical values can stand only once.
Columns and labels:
plants = conditions: cited from earlier work
dicamba O-demethylase [1] = type: biochemical; conditions: mixture of three partially purified components, 30 minutes at 30° C.; 0.5 mM NADH, 0.5 mM NADPH, 10 mM MgCl2, 0.5 mM FeSO4, 0.2 mM FAD, 0.2 mM FMN
Procedure: (§1) Enzyme assays. […] At specific times, the reactions were stopped by adding 50 μl of 5% (vol/vol) H2SO4.
(§2) The solvent system for running the TLC was chloroform-ethanol-acetic acid (85:10:5 [vol/vol/vol]). The resolved reaction products were visualized and quantified by exposing the TLC plate to a phosphor screen for 24 hours and then scanning the screen in a PhosphorImager SF (Molecular Dynamics, Sunnyvale, Calif.). […] Specific activities were based on the total protein concentration of the assay mixture.
(§3) When a single component was assayed, the other two components were provided in excess.
(§4) Component and cofactor requirements. […] Samples were applied to a Q-Sepharose (Fast Flow) fast protein liquid chromatography column (Pharmacia) in buffer A and eluted with a 100-ml linear gradient of 0 to 0.6 M KCl (for the oxygenase component) or 0 to 1.0 M KCl (for the ferredoxin and reductase components) in 1.5-ml fractions. Appropriate pooled fractions from separate columns for oxygenase purification (fractions 29 to 37), for ferredoxin purification (fractions 30 to 37), or for reductase purification (fractions 26 to 38) were used for the determination of component and cofactor requirements.
(§5) The three components were assayed for O-demethylase activity in various combinations to determine component requirements.
(§6) The amounts of partially purified protein (provided in an optimized ratio) in the reaction mixtures were 85 μg of oxygenase, 55 μg of ferredoxin and 50 μg of reductase. The concentration of cofactors used in the reaction mixtures were 0.5 mM NADH, 0.2 mM FAD, 0.5 mM FeSO4, 10 mM MgCl2, 0.5 mM NADPH, and 0.2 mM FMN.

dicamba O-demethylase [2] = target: dicamba O-demethylase (Stenotrophomonas maltophilia, UniProt Q5S3I3); conditions: cleared cell lysate, less than 1 ppm oxygen, 30° C., within 1 hour
Procedure: Oxygen requirement. […] The procedures for displacement of oxygen from the reaction mixture were performed at 4° C. Reaction mixtures lacking enzyme were placed in a vial and sealed with a rubber stopper. For displacement of oxygen, the vial was evacuated twice by vacuum and flushed each time with nitrogen. After a third evacuation, the vial was flushed with 90% nitrogen plus 10% hydrogen. The enzyme solution was likewise purged of oxygen (with care taken not to bubble the enzyme solution). Both the reaction mixtures and enzyme solutions were transferred into an anaerobic chamber (95% N2-5% H2 atmosphere). Two hundred forty microliters of cleared cell lysate was injected through the rubber stopper with a microsyringe and gently mixed with 960 μl of oxygen-free reaction mixture. Reactions were carried out at 30° C.
COc1c(Cl)ccc(Cl)c1C(=O)O = assay: cells, lysate or membranes named; conditions: other: partially purified O-demethylase (40%-70% ammonium sulfate fraction), pH 7.0, 30° C., Michaelis-Menten/Lineweaver-Burk fit, duplicate experiments
dicamba O-demethylase [3] = target: T1, dicamba O-demethylase (Stenotrophomonas maltophilia, UniProt Q5S3I3); type: biochemical; conditions: mixed with excess amounts of components I and III; 55 μg partially purified component II or 100 μg highly purified Clostridium ferredoxin
T1 construct: partially purified O-demethylase enzyme [the 40%-70% (w/v) (NH4)2SO4 fraction from a cleared cell lysate]; endogenous in cells; host or cells: Pseudomonas maltophilia strain DI-6 (cleared cell lysate, ammonium sulfate cut, or Phenyl-/Q-Sepharose fractions)
T1 sequence (Q5S3I3 2-339): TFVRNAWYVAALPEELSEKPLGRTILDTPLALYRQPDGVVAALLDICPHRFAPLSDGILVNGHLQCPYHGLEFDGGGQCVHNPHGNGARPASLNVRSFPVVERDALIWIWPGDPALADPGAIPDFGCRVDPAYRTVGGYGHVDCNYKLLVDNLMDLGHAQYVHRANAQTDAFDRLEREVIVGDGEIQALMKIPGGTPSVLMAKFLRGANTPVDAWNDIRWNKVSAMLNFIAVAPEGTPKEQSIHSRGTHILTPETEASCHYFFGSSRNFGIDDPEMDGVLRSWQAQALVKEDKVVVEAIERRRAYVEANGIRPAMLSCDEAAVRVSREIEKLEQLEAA
Procedure: as §1, §2, §3, §4, §5, §6

[4] = Reductase assays (reduction of cytochrome c or DCIP in the presence of NADH); type: biochemical
Procedure: The reaction contained 0.5 mM NADH, 0.2 mM FAD (flavin adenine dinucleotide), 50 μM DCIP, 20 mM Tris buffer (pH 8.0), and 10-100 μl of enzyme sample in a total volume of 1 ml. The change in absorbance at 600 nm with time was measured at room temperature. Specific activity was calculated using an extinction coefficient at 600 nm of 21.0 mM^−1cm^−1 for reduced DCIP. Specific activity was expressed as nmol DCIP reduced min^−1 mg^−1 of protein.
In addition, an in situ DCIP assay was used to detect and locate the reductase activity in protein preparations separated on isoelectric focusing (IEF) gels. After electrophoresis of the proteins on an IEF gel, lanes sliced from the gel were washed with 20 ml of cold 20 mM Tris-HCl buffer (pH 8.0). Low melting agarose was dissolved by heating in 10 ml of 20 mM Tris-HCl buffer (pH 8.0) at a final concentration of 1.5% (w/v). When the agarose cooled to near room temperature, it was supplemented with 0.2 mM FAD, 50 μM DCIP, and 0.5 mM NADH. The assay mixture was poured onto a glass plate and allowed to solidify. The gel piece was placed on top of the solidified reaction mixture and allowed to set at room temperature for 15 minutes. If the gel slice contained a protein with reductase activity, a colorless band of reduced DCIP was generated in the blue background of DCIP.

Molecule: O=C(O)c1c(Cl)ccc(Cl)c1O [3,6-DCSA, 3,6-dichlorosalicylic acid]
- herbicidal activity (plants): no herbicidal activity

Molecule: Cc1cc2nc3c(=O)[nH]c(=O)nc-3n(C[C@H](O)[C@H](O)[C@H](O)COP(=O)(O)OP(=O)(O)OC[C@H]3O[C@@H](n4cnc5c(N)ncnc54)[C@H](O)[C@@H]3O)c2cc1C [FAD, flavin adenine dinucleotide]
- cofactor effect on dicamba O-demethylase activity (dicamba O-demethylase [1]): little or no stimulation

Molecule: Cc1cc2nc3c(=O)[nH]c(=O)nc-3n(C[C@H](O)[C@H](O)[C@H](O)COP(=O)(O)O)c2cc1C [FMN, flavin mononucleotide]
- cofactor effect on dicamba O-demethylase activity (dicamba O-demethylase [1]): little or no stimulation

Molecule: NC(=O)C1=CN([C@@H]2O[C@H](COP(=O)(O)OP(=O)(O)OC[C@H]3O[C@@H](n4cnc5c(N)ncnc54)[C@H](O)[C@@H]3O)[C@@H](O)[C@H]2O)C=CC1 [NADH, beta-nicotinamide adenine dinucleotide, reduced form]
- cofactor effect on dicamba O-demethylase activity (dicamba O-demethylase [1]): markedly more effective than NADPH

Molecule: NC(=O)C1=CN([C@@H]2O[C@H](COP(=O)(O)OP(=O)(O)OC[C@H]3O[C@@H](n4cnc5c(N)ncnc54)[C@H](OP(=O)(O)O)[C@@H]3O)[C@@H](O)[C@H]2O)C=CC1 [NADPH]
- cofactor effect on dicamba O-demethylase activity (dicamba O-demethylase [1]): supported enzyme activity

Molecule: COc1c(Cl)ccc(Cl)c1C(=O)O [dicamba, 3,6-dichloro-2-methoxybenzoic acid]
- conversion of dicamba to 3,6-DCSA under anaerobic conditions (dicamba O-demethylase [2]): virtually no conversion

Molecule: dicamba O-demethylase (Stenotrophomonas maltophilia)
- Km (COc1c(Cl)ccc(Cl)c1C(=O)O): 9.9 ± 3.9 µM and 10 µM

Molecule: ferredoxin from Clostridium: highly purified ferredoxin from Clostridium pasteurianum (AYKIADSCVSCGACASECPVNAISQGDSIFVIDADTCIDCGNCANVCPVGAPVQE; UniProt P00195 2-56, looked up)
- rate of conversion of dicamba to 3,6-DCSA (ferredoxin component) (dicamba O-demethylase [3]): 0.6 nmol/min/mg

B1: component I: oxygenase component of dicamba O-demethylase (protein)
chain: MTFVRNAWYVAALPEELSEKPLGRTILDTPLALYRQPDGVVAALLDICPHRFAPLSDGILVNGHLQCPYHGLEFDGGGQCVHNPHGNGARPASLNVRSFPVVERDALIWIWPGDPALADPGAIPDFGCRVDPAYRTVGGYGHVDCNYKLLVDNLMDLGHAQYVHRANAQTDAFDRLEREVIVGDGEIQALMKIPGGTPSVLMAKFLRGANTPVDAWNDIRWNKVSAMLNFIAVAPEGTPKEQSIHSRGTHILTPETEASCHYFFGSSRNFGIDDPEMDGVLRSWQAQALVKEDKVVVEAIERRRAYVEANGIRPAMLSCDEAAVRVSREIEKLEQLEAA
modifications: Pseudomonas maltophilia DI-6
notes: oxygenase component of dicamba O-demethylase
- reductase activity with cytochrome c or DCPIP in the presence of NADH [4]: Neither component I nor component II showed activity

— patent publication US8119380B2, “Methods and materials for making and using transgenic dicamba-degrading organisms” (Board of Regents of University of Nebraska, priority 1997, dated 2012)
